The text below walks through data of PubChem BioAssay AID1259411 (Chemical Carcinogenesis Research Information System (CCRIS), 2018).

Activity calls are given as the source filed them. How the calls were made is not given here.

The data set relates to rodent carcinogenicity bioassays, tumor incidence. Briefly: CCRIS carcinogenicity studies. An outline of the steps: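 NCI-built, expert-reviewed records of carcinogenicity and related test outcomes (mutagenicity, tumor promotion/inhibition) compiled from published and report sources, historical span 1985-2011, not updated.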

In the case of `Clc1cc2oc3c(Cl)c(Cl)c(Cl)cc3c2cc1Cl`, the carcinogen call reads like this: (Species: RAT, Strain/Sex: SPRAGUE-DAWLEY/FEMALE, Route: ORAL, Dose: 0, 6, 20, 44, 92, 200 NG/KG/D (STUDY DURATION: 2 YRS), Dose: 0, 6, 20, 44, 92, 200 NG/KG/D (STUDY DURATION: 2 YRS)) “inactive; negative”; (Species: RAT, Strain/Sex: WISTAR/MALE, Route: SUBCUTANEOUS, Dose: 0, 4, 40 UG ONCE IN OLIVE OIL (STUDY DURATION: 104 WK), Dose: 0, 4, 40 UG ONCE IN OLIVE OIL (STUDY DURATION: 104 WK), Tumor Site: Type of Lesion: LIVER: HEPATOCELLULAR CARCINOMA, NODULE, INJECTION SITE: TUMOR) “active; positive”; (Species: RAT, Strain/Sex: WISTAR/MALE, Route: SUBCUTANEOUS, Dose: 0, 4, 40 UG ONCE IN OLIVE OIL (STUDY DURATION: 104 WK), Dose: 0, 4, 40 UG ONCE IN OLIVE OIL (STUDY DURATION: 104 WK), Tumor Site: Type of Lesion: LIVER: NODULE, INJECTION SITE: TUMOR) “active; positive”; (Species: RAT, Strain/Sex: WISTAR/MALE, Route: SUBCUTANEOUS, Dose: 0, 20 UG IN OLIVE OIL 1/WK INTO BACK FOR 4 WK (STUDY DURATION: 104 WK), Tumor Site: Type of Lesion: LIVER: NODULE, INJECTION SITE: TUMOR) “active; positive”; (Species: RAT, Strain/Sex: WISTAR/MALE, Route: SUBCUTANEOUS, Dose: 0, 20 UG IN OLIVE OIL INTO BACK 1/WK FOR 4 WK (STUDY DURATION: 104 WK), Tumor Site: Type of Lesion: LIVER: HEPATOCELLULAR CARCINOMA, NODULE) “active; positive”; (Species: Rat, Strain/Sex: Harlan Sprague-Dawley/Female, Route: Gavage, Dose: 0, 200 ng 5 d/wk in corn oil:acetone (99:1) for 30 wk and then vehicle for remainder of 2 yr study, Tumor Site: Type of Lesion: Oral Mucosa: Gingival squamous cell carcinoma (1/53, 3/50) Pancreas: Acinar adenoma or carcinoma (0/53, 2/49)) “active; positive trend (not statistically significant); for stop study vs. controls, inc”. Also, where the note is “Species: Rat, Strain/Sex: Harlan Sprague-Dawley/Female, Route: Gavage, Dose: 0, 6, 20, 44, 92, 200 ng in corn oil:acetone (99:1) 5 d/wk for 2 yrs, Dose: 0, 6, 20, 44, 92, 200 ng in corn oil:acetone (99:1) 5 d/wk for 2 yrs, Tumor Site: Type of Lesion: Liver: Hepatocellular adenoma (1/53, 0/53, 1/53, 0/52, 2/53, 4/53), Cholangiocarcinoma (0/53, 0/53, 0/53, 1/52, 1/53, 2/”, the carcinogen call was “active; positive (ntp reports as some evidence; findings in lung, pancreas, and uterus d”.
In the case of `Cc1cccc2c(C)c3c(ccc4ccccc43)c(C)c12`, the carcinogen call is, setting by setting: (Species: MOUSE, Strain/Sex: C57BL/MALE,FEMALE, Route: DERMAL, Tumor Site: Type of Lesion: INTEGUMENTARY SYSTEM (SKIN): PAPILLOMA, EPITHELIOMA, SARCOMA) “active; positive”; (Species: MOUSE, Strain/Sex: DBA/MALE,FEMALE, Route: DERMAL, Tumor Site: Type of Lesion: INTEGUMENTARY SYSTEM (SKIN): PAPILLOMA, EPITHELIOMA, SARCOMA) “active; positive”; (Species: MOUSE, Strain/Sex: DBF1/MALE,FEMALE, Route: DERMAL, Tumor Site: Type of Lesion: INTEGUMENTARY SYSTEM (SKIN): PAPILLOMA, EPITHELIOMA, SARCOMA) “active; positive”; (Species: RAT, Strain/Sex: LONG-EVANS/FEMALE, Route: INTRAVENOUS, Dose: 35 MG/KG, 0.5% IN DMSO DILUTED WITH COTTONSEED OIL-WATER EMULSION, 1/2 WK OR 1/10 D FOR 3-5 DOSES, Tumor Site: Type of Lesion: HEMATOPOIETIC SYSTEM (LEUKEMIA)) “active; positive”; (Species: RAT, Strain/Sex: LONG-EVANS/MALE, Route: INTRAMUSCULAR, Dose: 2.5 MG IN 0.5 ML SESAME OIL ONCE, Tumor Site: Type of Lesion: INJECTION SITE: SARCOMA) “active; positive”; (Species: RAT, Strain/Sex: LONG-EVANS/MALE, Route: INTRAVENOUS, Dose: 35 MG/KG, 0.5% IN DMSO DILUTED WITH COTTONSEED OIL-WATER EMULSION, 1/2 WK FOR 4 DOSES, Tumor Site: Type of Lesion: HEMATOPOIETIC SYSTEM (LEUKEMIA)) “active; positive”.
In the case of `O=NN1CCC1`, the carcinogen call (Species: HAMSTER, Strain/Sex: SYRIAN/MALE, Route: INTRAGASTRIC, Dose: 0, 50 MG/ML IN 0.2 ML STERILIZED WATER 1/WK FOR 50 WK (TOTAL DOSE 500 MG) (STUDY DURATION: LIFESPAN), Tumor Site: Type of Lesion: LIVER: ADENOMA, HEPATOCELLULAR CARCINOMA, HEMANGIOSARCOMA, NOSE: CARCINOMA) is “active; positive”.
`C=C(F)F`: the carcinogen call by setting is: (Species: RAT, Strain/Sex: SPRAGUE-DAWLEY/FEMALE, Route: GAVAGE, Dose: 0, 4.12, 8.25 MG/KG BW IN OLIVE OIL 1/D 4-5 D/WK FOR 52 WK (STUDY DURATION: LIFETIME), Dose: 0, 4.12, 8.25 MG/KG BW IN OLIVE OIL 1/D 4-5 D/WK FOR 52 WK (STUDY DURATION: LIFETIME), Tumor Site: Type of Lesion: [BRAIN WAS ONLY SITE EVALUATED]) “inactive; negative”; (Species: RAT, Strain/Sex: SPRAGUE-DAWLEY/MALE, Route: GAVAGE, Dose: 0, 4.12, 8.25 MG/KG BW IN OLIVE OIL 1/D 4-5 D/WK FOR 52 WK (STUDY DURATION: LIFETIME), Dose: 0, 4.12, 8.25 MG/KG BW IN OLIVE OIL 1/D 4-5 D/WK FOR 52 WK (STUDY DURATION: LIFETIME), Tumor Site: Type of Lesion: [BRAIN WAS ONLY SITE EVALUATED]) “inactive; negative”.
